Assay in all cases: KINOMEscan competition binding
Holding throughout (conditions): compound 10.0 µM

Assay [1] relates to EGFR (human), P00533 [A750P; 747-749 del].
In assay [2] the test system is BMX (human), P51813 [V600E].
For assay [3], the system named is LRRK2 (human), Q5S007 [G2019S].
For assay [4], the system named is EGFR (human), P00533 [L858R].
The test system of assay [5] is FLT3 (human), P36888 [D835Y].
Assay [6] concerns PIK3CA (human), P42336 [H1047L].
Assay [7] concerns MET (human), P08581 [M1250T].
Assay [8] concerns EGFR (human), P00533 [G719C].
Assay [9] concerns FGFR3 (human), P22607 [G697C].
In assay [10] the test system is PIK3CA (human), P42336 [E542K].
Assay [11] deals with RET (human), P07949 [V804L].
Assay [12] has as its system PIK3CA (human), P42336 [M1043I].
Assay [13] deals with KIT (human), P10721 [A829P].
For assay [14], the system named is KIT (human), P10721 [D816H].

SMILES strings stand for the structures.

Sequence of FGFR3 (human), P22607 [G697C] (P22607 whole entry G697C, looked up): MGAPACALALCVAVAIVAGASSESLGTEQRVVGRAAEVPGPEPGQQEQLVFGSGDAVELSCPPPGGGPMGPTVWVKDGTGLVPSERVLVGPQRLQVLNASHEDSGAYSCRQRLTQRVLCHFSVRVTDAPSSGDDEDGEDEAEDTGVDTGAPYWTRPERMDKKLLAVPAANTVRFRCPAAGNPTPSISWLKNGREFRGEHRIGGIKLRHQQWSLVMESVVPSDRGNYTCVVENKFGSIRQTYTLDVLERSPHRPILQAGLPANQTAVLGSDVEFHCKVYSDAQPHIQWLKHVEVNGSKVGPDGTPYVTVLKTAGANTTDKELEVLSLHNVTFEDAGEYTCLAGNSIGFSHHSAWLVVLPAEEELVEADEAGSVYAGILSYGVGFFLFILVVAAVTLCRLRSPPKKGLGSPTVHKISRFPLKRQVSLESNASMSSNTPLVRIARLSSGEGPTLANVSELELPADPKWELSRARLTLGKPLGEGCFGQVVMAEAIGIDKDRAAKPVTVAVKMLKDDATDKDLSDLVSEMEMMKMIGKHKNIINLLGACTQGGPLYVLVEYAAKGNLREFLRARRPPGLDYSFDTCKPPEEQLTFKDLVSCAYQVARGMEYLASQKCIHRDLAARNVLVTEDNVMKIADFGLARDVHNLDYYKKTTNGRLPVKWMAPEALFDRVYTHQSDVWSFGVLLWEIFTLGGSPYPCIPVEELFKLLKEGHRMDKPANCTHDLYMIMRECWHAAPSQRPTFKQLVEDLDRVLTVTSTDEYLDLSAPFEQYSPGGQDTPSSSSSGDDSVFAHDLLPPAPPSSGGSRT
Sequence of PIK3CA (human), P42336 [H1047L] (P42336 whole entry H1047L, looked up): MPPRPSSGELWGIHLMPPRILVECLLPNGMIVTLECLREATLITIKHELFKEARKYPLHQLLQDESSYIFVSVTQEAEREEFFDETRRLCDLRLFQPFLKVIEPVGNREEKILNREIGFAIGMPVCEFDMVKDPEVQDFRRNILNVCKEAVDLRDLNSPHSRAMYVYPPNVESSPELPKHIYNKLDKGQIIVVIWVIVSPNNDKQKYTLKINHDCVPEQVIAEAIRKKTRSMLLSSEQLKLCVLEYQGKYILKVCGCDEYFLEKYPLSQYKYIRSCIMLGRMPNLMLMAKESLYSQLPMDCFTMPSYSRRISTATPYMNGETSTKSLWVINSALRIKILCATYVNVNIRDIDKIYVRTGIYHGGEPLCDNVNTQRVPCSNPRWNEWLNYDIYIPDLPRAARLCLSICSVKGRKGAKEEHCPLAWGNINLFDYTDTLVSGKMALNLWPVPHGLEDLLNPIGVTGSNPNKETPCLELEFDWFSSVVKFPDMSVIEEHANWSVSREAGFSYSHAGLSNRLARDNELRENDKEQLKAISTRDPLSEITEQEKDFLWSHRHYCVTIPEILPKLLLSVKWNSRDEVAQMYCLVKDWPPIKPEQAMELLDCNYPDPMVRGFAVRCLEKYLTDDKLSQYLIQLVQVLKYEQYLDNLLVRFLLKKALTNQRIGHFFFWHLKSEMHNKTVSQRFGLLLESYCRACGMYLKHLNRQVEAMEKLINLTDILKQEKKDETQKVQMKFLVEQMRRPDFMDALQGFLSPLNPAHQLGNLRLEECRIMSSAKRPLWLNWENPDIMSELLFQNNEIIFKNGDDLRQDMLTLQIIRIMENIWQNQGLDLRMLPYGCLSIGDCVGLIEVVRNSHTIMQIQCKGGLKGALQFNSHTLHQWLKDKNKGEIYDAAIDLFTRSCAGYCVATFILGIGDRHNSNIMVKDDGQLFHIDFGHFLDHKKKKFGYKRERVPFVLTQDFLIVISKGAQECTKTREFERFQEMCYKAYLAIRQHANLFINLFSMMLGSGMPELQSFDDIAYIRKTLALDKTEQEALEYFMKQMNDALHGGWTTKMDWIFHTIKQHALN
Sequence of PIK3CA (human), P42336 [M1043I] (P42336 whole entry M1043I, looked up): as the sequence (P42336 whole entry H1047L, looked up) above, with M1043I, L1047H counted along it
Sequence of BMX (human), P51813 [V600E] (P51813 whole entry, looked up, stated change not applied): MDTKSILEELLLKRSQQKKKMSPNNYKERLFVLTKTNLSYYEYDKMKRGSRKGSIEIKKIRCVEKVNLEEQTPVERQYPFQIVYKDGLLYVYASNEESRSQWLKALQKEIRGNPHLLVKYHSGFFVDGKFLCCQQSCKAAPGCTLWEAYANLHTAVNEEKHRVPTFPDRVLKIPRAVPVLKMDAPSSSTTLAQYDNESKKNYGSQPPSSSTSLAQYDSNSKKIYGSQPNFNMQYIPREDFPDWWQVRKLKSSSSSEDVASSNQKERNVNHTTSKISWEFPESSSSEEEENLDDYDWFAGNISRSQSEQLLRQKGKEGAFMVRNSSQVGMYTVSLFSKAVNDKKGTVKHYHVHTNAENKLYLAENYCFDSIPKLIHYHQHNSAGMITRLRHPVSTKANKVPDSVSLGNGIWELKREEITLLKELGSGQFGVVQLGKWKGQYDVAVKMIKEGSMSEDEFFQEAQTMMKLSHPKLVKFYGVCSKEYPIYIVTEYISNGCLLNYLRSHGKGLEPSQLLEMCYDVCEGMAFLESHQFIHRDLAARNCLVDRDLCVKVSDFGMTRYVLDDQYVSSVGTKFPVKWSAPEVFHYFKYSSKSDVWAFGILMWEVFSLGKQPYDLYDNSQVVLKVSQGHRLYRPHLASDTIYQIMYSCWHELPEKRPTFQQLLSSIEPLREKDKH
Sequence of KIT (human), P10721 [D816H] (P10721 whole entry D816H, looked up): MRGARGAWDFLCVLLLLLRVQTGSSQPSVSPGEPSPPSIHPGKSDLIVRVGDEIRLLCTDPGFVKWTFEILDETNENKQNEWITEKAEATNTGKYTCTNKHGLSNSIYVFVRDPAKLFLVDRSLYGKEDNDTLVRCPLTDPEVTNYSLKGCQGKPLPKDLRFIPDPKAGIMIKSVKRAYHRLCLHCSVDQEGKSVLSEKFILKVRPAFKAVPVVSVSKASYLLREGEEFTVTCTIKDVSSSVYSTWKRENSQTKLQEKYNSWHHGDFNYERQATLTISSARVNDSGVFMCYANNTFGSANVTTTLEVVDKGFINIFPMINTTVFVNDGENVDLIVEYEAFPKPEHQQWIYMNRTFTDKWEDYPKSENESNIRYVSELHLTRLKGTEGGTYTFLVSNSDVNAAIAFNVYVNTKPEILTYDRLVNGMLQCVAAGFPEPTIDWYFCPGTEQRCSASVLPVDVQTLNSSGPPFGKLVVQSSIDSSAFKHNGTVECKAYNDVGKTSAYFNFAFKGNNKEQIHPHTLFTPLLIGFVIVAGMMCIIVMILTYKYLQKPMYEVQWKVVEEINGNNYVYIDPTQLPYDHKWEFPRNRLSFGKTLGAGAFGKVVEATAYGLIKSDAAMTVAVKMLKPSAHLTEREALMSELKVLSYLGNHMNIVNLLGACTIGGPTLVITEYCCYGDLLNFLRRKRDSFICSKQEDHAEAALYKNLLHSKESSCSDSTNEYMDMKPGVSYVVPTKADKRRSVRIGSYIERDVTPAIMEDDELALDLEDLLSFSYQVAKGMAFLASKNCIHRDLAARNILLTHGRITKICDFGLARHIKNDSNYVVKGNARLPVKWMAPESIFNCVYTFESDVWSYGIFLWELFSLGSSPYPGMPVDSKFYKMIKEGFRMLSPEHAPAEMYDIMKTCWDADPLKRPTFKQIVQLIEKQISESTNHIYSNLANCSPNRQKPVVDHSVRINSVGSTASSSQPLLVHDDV
Sequence of RET (human), P07949 [V804L] (P07949 whole entry V804L, looked up): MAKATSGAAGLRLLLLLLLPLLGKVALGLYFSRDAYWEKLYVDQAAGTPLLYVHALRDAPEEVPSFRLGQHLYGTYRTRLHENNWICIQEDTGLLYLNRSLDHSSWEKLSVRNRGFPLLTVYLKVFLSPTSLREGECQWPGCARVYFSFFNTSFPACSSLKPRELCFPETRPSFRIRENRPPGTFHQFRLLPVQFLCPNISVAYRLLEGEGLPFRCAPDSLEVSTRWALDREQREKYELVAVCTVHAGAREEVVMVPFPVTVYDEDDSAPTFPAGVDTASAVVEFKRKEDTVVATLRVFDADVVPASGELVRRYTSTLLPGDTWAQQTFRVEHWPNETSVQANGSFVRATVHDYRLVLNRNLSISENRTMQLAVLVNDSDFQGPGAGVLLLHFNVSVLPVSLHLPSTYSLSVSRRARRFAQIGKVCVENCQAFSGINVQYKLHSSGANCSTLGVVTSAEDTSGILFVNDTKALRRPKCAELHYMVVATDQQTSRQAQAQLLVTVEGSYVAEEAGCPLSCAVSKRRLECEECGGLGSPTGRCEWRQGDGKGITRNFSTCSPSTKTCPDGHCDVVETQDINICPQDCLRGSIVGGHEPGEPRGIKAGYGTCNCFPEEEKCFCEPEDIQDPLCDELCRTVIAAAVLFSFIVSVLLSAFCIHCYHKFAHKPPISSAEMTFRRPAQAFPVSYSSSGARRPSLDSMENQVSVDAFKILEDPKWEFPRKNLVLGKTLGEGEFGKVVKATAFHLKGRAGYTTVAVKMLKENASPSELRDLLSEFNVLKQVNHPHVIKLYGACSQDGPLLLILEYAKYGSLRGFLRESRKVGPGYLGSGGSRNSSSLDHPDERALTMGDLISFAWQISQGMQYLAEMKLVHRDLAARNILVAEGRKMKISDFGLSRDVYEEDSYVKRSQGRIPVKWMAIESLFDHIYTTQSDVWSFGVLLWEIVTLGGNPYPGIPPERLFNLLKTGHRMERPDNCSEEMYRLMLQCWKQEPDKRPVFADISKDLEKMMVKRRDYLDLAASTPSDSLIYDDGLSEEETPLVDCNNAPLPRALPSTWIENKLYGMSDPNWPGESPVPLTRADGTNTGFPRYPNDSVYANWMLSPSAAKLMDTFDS
Sequence of KIT (human), P10721 [A829P] (P10721 whole entry A829P, looked up): as the sequence (P10721 whole entry D816H, looked up) above, with H816D, A829P counted along it
Sequence of PIK3CA (human), P42336 [E542K] (P42336 whole entry E542K, looked up): as the sequence (P42336 whole entry H1047L, looked up) above, with E542K, L1047H counted along it

In the case of `NC(=O)Nc1cc(-c2cccc(F)c2)sc1C(=O)N[C@@H]1CCCNC1`, the kinase still bound, per cent of control in [1] is 0.65%; in assay [2], 89%; in assay [3], 4.2%; in assay [4] it was 2.2%; in assay [5] it was 0.1%; in [6], 100%. The kinase still bound, per cent of control in assay [7] amounted to 4.7%; in assay [8], 0.05%; in [9], 22%; in assay [10] it was 100%; in assay [11] it was 0%; in assay [12], 100%.
Regarding `O=C(O)c1ccc(Nc2ncc3c(n2)-c2ccc(Cl)cc2C(c2c(F)cccc2F)=NC3)cc1`, the kinase still bound, per cent of control in assay [1] turned out to be 28%; in [13], 100%; in assay [3], 100%; in assay [4] it was 29%; in assay [5] it was 72%; in assay [6], 79%. The kinase still bound, per cent of control in assay [7] turned out to be 58%; in [8], 77%; in [9] it was 12%; in assay [11], 88%.
As to `Cc1cc([C@@H](C)Nc2ccccc2C(=O)O)c2nc(N3CCOCC3)cc(=O)n2c1`, the kinase still bound, per cent of control amounted to 100% in assay [1]; 92% in [2]; 100% in assay [13]; 88% in assay [14]; 100% in [3]; 100% in assay [4]. Further, the kinase still bound, per cent of control amounted to 54% in [5]; 87% in assay [7]; 95% in [8]; 100% in assay [9]; 99% in [11].
As to `CCCS(=O)(=O)Nc1ccc(F)c(C(=O)c2c[nH]c3ncc(-c4ccc(Cl)cc4)cc23)c1F`, the kinase still bound, per cent of control amounted to 74% in [1]; 0.2% in assay [2]; 89% in assay [13]; 98% in assay [14]; 70% in assay [3]; 95% in assay [6]. The kinase still bound, per cent of control in [7] worked out at 25%; in [8], 28%; in assay [9], 100%; in assay [10], 100%; in assay [11], 90%.
On to `CCN(CC)CCCCNc1ncc2cc(-c3cc(OC)cc(OC)c3)c(NC(=O)NC(C)(C)C)nc2n1`, for which the kinase still bound, per cent of control came out at 100% in assay [2], 100% in assay [5] and 3.7% in assay [9].
Regarding `Nc1ccc(-c2ccc3ncc4ccc(=O)n(-c5cccc(C(F)(F)F)c5)c4c3c2)cn1`, the kinase still bound, per cent of control in assay [1] worked out at 100%; in assay [2], 95%; in assay [13], 64%; in assay [14], 80%; in [3] it was 81%; in assay [4], 100%. Further, the kinase still bound, per cent of control was determined as 32% in assay [5]; 0% in assay [6]; 100% in assay [7]; 71% in assay [8]; 89% in assay [9]; 100% in assay [11].
Consider `O=C(NOC[C@H](O)CO)c1ccc(F)c(F)c1Nc1ccc(I)cc1F`, for which the kinase still bound, per cent of control in [2] was found to be 100%; in assay [14] it was 91%; in assay [3] it was 100%; in [4] it was 79%; in assay [5], 100%; in assay [6], 45%. Moreover, the kinase still bound, per cent of control is 92% in [7]; 86% in assay [8]; 88% in assay [9]; 57% in assay [10]; 93% in [11]; 42% in [12].
Regarding `N#Cc1c(NC(=O)c2cccc3ccccc23)sc2c1CCCC2`, the kinase still bound, per cent of control in assay [2] stood at 93%; in [13], 87%; in assay [14], 85%; in assay [3], 94%; in assay [5], 80%; in assay [6], 70%. Besides, the kinase still bound, per cent of control in assay [7] came to 100%; in assay [9], 83%; in assay [10], 100%; in assay [11], 90%; in assay [12], 100%.
As for `CNC(=O)c1cc(Oc2ccc(NC(=O)Nc3ccc(Cl)c(C(F)(F)F)c3)cc2)ccn1`, the kinase still bound, per cent of control came out at 0.05% in [2]; 59% in assay [13]; 36% in [14]; 3.2% in assay [5]; 83% in [7]; 39% in assay [9]. The molecule further yielded a kinase still bound, per cent of control in [11] of 0.1%.
As for `Cc1ccc2nc(NCCN)c3ncc(C)n3c2c1`, the kinase still bound, per cent of control in assay [1] is 100%; in assay [2], 60%; in [14] it was 100%; in [5], 97%; in assay [6], 100%; in assay [7] it was 100%. The kinase still bound, per cent of control in assay [9], in assay [10], in assay [11] and in assay [12] was 100% in each case.
For `COCC(=O)NC/C=C/c1ccc2ncnc(Nc3ccc(Oc4ccc(C)nc4)c(C)c3)c2c1`, the kinase still bound, per cent of control was 80% in assay [2]; 100% in [14]; 98% in [3]; 100% in assay [6]; 100% in assay [7]; 90% in assay [9]. Further, the kinase still bound, per cent of control in [10], in [11] and in assay [12] was 100% in each case.
For the molecule `C[C@@H](Oc1cc(-c2cnn(C3CCNCC3)c2)cnc1N)c1c(Cl)ccc(F)c1Cl`, the kinase still bound, per cent of control is 35% in assay [13]; 50% in assay [14]; 57% in [3]; 11% in assay [5]; 48% in assay [6]; 27% in [9]. This molecule returned a kinase still bound, per cent of control in assay [10] of 100%.

The values are drawn from the kinase profiling compilation of Christmann-Franck et al. (2016).
